One data set has as its system Male Sprague Dawley rats. The experiment in a line: analgesic effect against neuropathic pain (L5/L6 spinal nerve ligation, von Frey mechanical allodynia). To be noted: intraperitoneal injection. The data set is classed as in vivo, rat. As for the experimental part:
Animals were prepared for testing, by use of a surgical procedure that induces neuropathic pain in one paw. Male Sprague Dawley rats were purchased from Charles River (Portage, Mich.). Prior to surgery, animals were housed in groups and maintained in a temperature-regulated environment. Following nerve ligation surgery, animals were housed in groups, and had access to food and water ad libitum.
The L5 and L6 spinal nerves of anesthetized rats were tightly ligated in a manner described previously (see Kim and Chung, Pain (1992) vol. 50 pp. 355-363). An incision was made on the dorsal portion of the hip and the muscle was blunt-dissected to reveal the spinal processes. […] The paw affected by the surgical procedure (the left paw) develops an allodynic response, a hypersensitivity to mechanical and other stimuli; neuropathic pain is assessed as an increased sensitivity in the surgically affected (left) allodynic paw compared to the control paw on the right side, and measured by comparing the response of the (left side) allodynic paw to the response of the unaffected right side control paw.
For the assessment of neuropathic pain, mechanical allodynia in the affected paw of animals that had undergone spinal nerve ligation was evaluated using testing with von Frey filaments. […]

Another data set has as its system mice. The data set is described as follows: single trial 24-hour inhibitory avoidance model (memory). In kind it is in vivo, mouse. As to conditions: 0.03 mg/kg, intraperitoneal injection, p<0.01 versus vehicle injected control mice. An excerpt: The ability of compounds to treat diseases with deficits in memory and cognition such as Alzheimer's disease, dementia, age-related cognitive impairment, schizophrenia, and cognitive deficits of schizophrenia can be assessed in animal models. One model assessing the capability of a compound to enhance memory is the single trial 24-hour inhibitory avoidance model, described in Tietje et al. (Tietje, K. R., et al. “Preclinical Characterization of A-582941: A Novel α7 Neuronal Nicotinic Receptor Agonist with Broad Spectrum Cognition-Enhancing Properties” CNS Neuroscience and Therapeutics 2008 v14 pp. 65-82). In this mouse model, at a dose of 0.03 mg/kg, administered by intraperitoneal injection, the compound of Example 20 ((R)-2-(2-(3-(piperidin-1-yl)pyrrolidin-1-yl)benzo[d]thiazol-6-yl)pyridazin-3(2H)-one) achieved full efficacy, (p<0.01 versus vehicle injected control mice).

Data set [1] concerns adult osteoarthritic rats. The data set is described as follows: osteoarthritis model (MIA-induced knee joint osteoarthritis, hind limb grip force). The data set is classed as in vivo, rat. As to conditions: intraperitoneal injection; for effect on hind limb grip force: p<0.01, 20 days after MIA. As for the experimental part: Unilateral knee joint osteoarthritis was induced in rats by a single intra-articular (i.a.) injection of sodium monoiodoacetate (MIA) (Sigma-Aldrich, St. Louis, Mo.) (3 mg in 50 μl sterile isotonic saline) into the right knee joint cavity under light (1-3%) isoflurane anesthesia.
Pain behavior was assessed by measurement of hind limb grip force (GF) in adult osteoarthritic rats. Following the unilateral injection of MIA (male Sprague Dawley, 325-350 g, tested at 20 days following MIA injection), a behavioral measure of activity-induced pain was carried out. Measurements of the peak hind limb grip force were conducted by recording the maximum compressive force (CFmax), in grams of force, exerted on a hind limb strain gauge setup, in a commercially available grip force measurement system (Columbus Instruments, Columbus, Ohio).
During testing, each rat was gently restrained by grasping it around its rib cage and then allowed to grasp the wire mesh frame attached to the strain gauge. The experimenter then moved the animal in a rostral-to-caudal direction until the grip was broken. Each rat was sequentially tested twice at approximately 2-3 min interval to obtain a raw mean grip force (CFmax). This raw mean grip force data was in turn converted to a maximum hindlimb cumulative compressive force (CFmax), as the grams of force/kg of body weight, for each animal.
For evaluating the compound effects, the hind limb grip force was conducted 20 days following the intra-articular injection of MIA. A group of age-matched naïve (not injected with MIA) animals was added as a comparator to the drug-dosed groups. The vehicle control response for each group of MIA-treated animals was defined as the 0% response (0% effect), whereas the naïve control group was defined as the normal response and as 100% effect. The % effects for each dose group was expressed as % return of response to normalcy, compared to the naïve group. That is, the % effect=(Treatment CFmax−Vehicle CFmax)/Vehicle CFmax]×100). All experiments evaluating drug effects in this model were conducted in a randomized blinded fashion. […]

Take `O=c1cccnn1-c1ccc2nc(N3CC[C@@H](N4CCCCC4)C3)sc2c1` [Example 20, (R)-2-(2-(3-(piperidin-1-yl)pyrrolidin-1-yl)benzo[d]thiazol-6-yl)pyridazin-3(2H)-one]: in the data set with Male Sprague Dawley rats (3 mg/kg, p<0.01), the “reduction in mechanical allodynia” value is listed as 40%. Moreover, the adverse effects entry (in the data set with Male Sprague Dawley rats (neuropathic pain model); in data set [1] (osteoarthritis model)) was “No complicating adverse effects were observed” each time. The “efficacy in inhibitory avoidance (memory enhancement)” value with mice is on record as “full efficacy”. Besides, the “effect on hind limb grip force” value in data set [1] (1 mg/kg) is on record as 49%; in data set [1] (3 mg/kg), 69%.

These data come from patent US8580968B2, “Benzothiazole and benzooxazole derivatives and methods of use” (AbbVie Inc., priority 2007, dated 2013).
